Among the data in patent publication US9951058B2, “Compound, pharmaceutically acceptable salt or optical isomer thereof, method for preparing the same, and pharmaceutical composition for prevention or treatment of viral diseases containing same as active ingredient” (Korea Research Institute of Chemical Technology, priority 2012, dated 2018) are EC50 and CC50 values, retold here.

Molecules are shown by their SMILES. In brackets after ≈: the same amount, converted by molar mass. Bounds are passed on as bounds.

The test system of one data set is HRV 21. Kind of data set: Cytopathic effect (CPE) inhibition assay. The conditions noted are these: Human rhinovirus sp., 72 h; host cell HeLa, 3 days, MEM/2% FBS, MTT assay; read-out: EC50 HRV 21. The data set is classed as cell-based, human rhinovirus. (Cytopathic effects are the visible damage that an infection or toxin causes in cultured cells.)
Data set [1] relates to coxsackievirus B1 (Cox B1). Nature of the data set: Multicycle cytopathic effect (CPE) reduction assay. Type of data set: cell-based. The conditions noted are these: Enterovirus B, B1, 72 h, read-out: EC50 CoxB1.
In the next data set the test system is HRV 71. Kind of data set: Cytopathic effect (CPE) inhibition assay. Type of data set: cell-based, human rhinovirus. The conditions noted are these: Human rhinovirus sp., 72 h; host cell HeLa, 3 days, MEM/2% FBS, MTT assay; read-out: EC50 HRV 71.
The nature of another data set: in vitro. The conditions noted are these: human.
The next data set deals with HRV 14. Nature of the data set: Cytopathic effect (CPE) inhibition assay. The conditions noted are these: Human rhinovirus sp., HeLa, 72 h, host cell HeLa, 3 days, MEM/2% FBS, MTT assay; read-out: EC50 HRV 14. Type of data set: cell-based, human rhinovirus.
Data set [2] can be described thus: Cytotoxicity (CC50) in multicycle CPE reduction assay, MTS. The conditions noted are these: human.
For data set [3], the system named is coxsackievirus B3 (Cox B3). Nature of the data set: Multicycle cytopathic effect (CPE) reduction assay. The data set is classed as cell-based. The conditions noted are these: Enterovirus B, B3, 72 h, read-out: EC50 CoxB3.
In a further data set the test system is poliovirus 3 (PV3). Nature of the data set: microbe, parasite or virus in culture. The data set is classed as cell-based. The conditions noted are these: Enterovirus C, 72 h, read-out: EC50 PV3.

Regarding `CC(C)c1ccc2c(c1)OC1(O)c3ccccc3C(=O)C21NC(=O)C(=O)CC(=O)c1ccncc1` (centres unmarked) [Example 42, N-(4b-hydroxy-7-isopropyl-10-oxo-4b, 10-dihydro-9bH-indeno[1,2-b]benzofuran-9b-yl)-2,4-dioxo-4-(pyridyn-4-yl)butanamide], the EC50 was > 10 µg/mL with HRV 21; < 0.1 µg/mL in data set [1]; > 10 µg/mL in the data set with HRV 71; < 10 µg/mL with HRV 14; < 0.1 µg/mL in data set [3]; > 10 µg/mL with poliovirus 3 (PV3). The CC50 in the data set “in vitro” is > 10 µg/mL. In addition, the CC50 at 3 days in data set [2] is > 10 µg/mL.
In the case of `Cc1cc2c(cc1C)C1(NC(=O)C(=O)c3c[nH]c4ccccc34)C(=O)c3ccccc3C1(O)O2` (centres unmarked) [Example 13, N-(4b-hydroxy-7,8-dimethyl-10-oxo-9b, 10-dihydro-9bH-indeno[1,2-b]benzofuran-9b-yl)-(1H-indo1-3-yl)-2-oxo acetamide], the EC50 with HRV 21 was > 8.41 µg/mL; in data set [1], 0.061 µg/mL (≈ 0.135 µM); in the data set on HRV 71 it was > 8.41 µg/mL; in the data set with HRV 14, 1.85 µg/mL (≈ 4.09 µM); in data set [3], 0.13 µg/mL (≈ 0.287 µM); with poliovirus 3 (PV3) it was 1.98 µg/mL (≈ 4.38 µM). Moreover, the CC50 in “in vitro” worked out at 8.41 µg/mL (≈ 18.6 µM). In addition, the CC50 at 3 days in data set [2] is 8.31 µg/mL (≈ 18.4 µM).
`CCOC(=O)C(=O)NC12C(=O)c3ccccc3C1(O)Oc1cc(C(C)C)ccc12` (centres unmarked) [Example 32, Ethyl 2-((4b-hydroxy-7-isopropyl-10-oxo-4b, 10-dihydro-9bH-indeno[1,2-b]benzofuran-9b-yl)amino)-2-oxo acetate]: the concentration giving a half-maximal response (EC50) in the data set with HRV 21 was > 10 µg/mL; in data set [1], < 0.1 µg/mL; with HRV 71 it was > 10 µg/mL; in the data set on HRV 14, < 1 µg/mL; in data set [3] it was < 1 µg/mL; in the data set on poliovirus 3 (PV3) it was < 10 µg/mL. The CC50 in the data set “in vitro” is > 10 µg/mL. Further, the CC50 at 3 days in data set [2] was > 10 µg/mL.
Consider `CC(C)c1ccc2c(c1)OC1(O)c3ccccc3C(=O)C21NC#N` (centres unmarked) [Example 46, N-(4b-hydroxy-7-isopropyl-10-oxo-4b, 10-dihydro-9bH-indeno[1,2-b]benzofuran-9b-yl)cyanamide], for which the EC50 in the data set with HRV 21 was > 10 µg/mL; in data set [1], < 10 µg/mL; in the data set with HRV 71, > 10 µg/mL; with HRV 14 it was > 10 µg/mL; in data set [3], < 10 µg/mL; with poliovirus 3 (PV3), > 10 µg/mL. Moreover, the CC50 in the data set “in vitro” is > 10 µg/mL. Also, the CC50 at 3 days in data set [2] is > 10 µg/mL.
Consider `CC(C)c1ccc2c(c1)OC1(O)c3ccccc3C(=O)C21NC(=O)CCC(=O)O` (centres unmarked) [Example 43], for which the EC50 is > 10 µg/mL in the data set on HRV 21; < 1 µg/mL in data set [1]; > 10 µg/mL with HRV 71; > 10 µg/mL in the data set with HRV 14; < 1 µg/mL in data set [3]; > 10 µg/mL in the data set on poliovirus 3 (PV3). For the same compound, the CC50 in “in vitro” is > 10 µg/mL. Moreover, the CC50 at 3 days in data set [2] is > 10 µg/mL.
As for `CC(C)c1ccc2c(c1)OC1(O)c3ccccc3C(=O)C21NC(=O)C(=O)N1CCN(C)CC1` (centres unmarked) [Example 48, N-(4b-hydroxy-7-isopropyl-10-oxo-4b, 10-dihydro-9bH-indeno[1,2-b]benzofuran-9b-yl)-2-(4-methylpiperazin-1-yl)-2-oxo acetamide], the EC50 with HRV 21 is > 10 µg/mL; in data set [1] it was < 0.1 µg/mL; in the data set with HRV 71 it was > 10 µg/mL; with HRV 14 it was < 1 µg/mL; in data set [3], < 0.1 µg/mL; with poliovirus 3 (PV3), < 10 µg/mL. Moreover, in “in vitro”, the CC50 is > 10 µg/mL. Besides, the CC50 at 3 days in data set [2] is > 10 µg/mL.
Take `CC(=O)C(=O)NC12C(=O)c3cccc([N+](=O)[O-])c3C1(O)Oc1cc(C(C)C)ccc12` (centres unmarked) [Example 19, N-(4b-hydroxy-7-isopropyl-4-nitro-10-oxo-4b, 10-dihydro-9bH-indeno[1,2-b]benzofuran-9b-yl)-2-oxo propanamide]: the EC50 in the data set on HRV 21 is > 10 µg/mL; in data set [1], < 1 µg/mL; with HRV 71 it was > 10 µg/mL; in the data set with HRV 14 it was < 10 µg/mL; in data set [3], < 1 µg/mL; in the data set on poliovirus 3 (PV3), < 10 µg/mL. Moreover, in “in vitro”, the CC50 is > 10 µg/mL. Further, the CC50 at 3 days in data set [2] is > 10 µg/mL.
In the case of `CCOC(=O)C(=O)NC12C(=O)c3c(N)cccc3C1(O)Oc1cc(C(C)C)ccc12` (centres unmarked) [Example 36, Ethyl 2-((1-amino-4b-hydroxy-7-isopropyl-10-oxo-4b, 10-dihydro-9bH-indeno[1,2-b]benzofuran-9b-yl)amino)-2-oxo acetate], the EC50 is > 10 µg/mL in the data set with HRV 21; < 0.1 µg/mL in data set [1]; > 10 µg/mL with HRV 71; < 1 µg/mL in the data set on HRV 14; < 0.1 µg/mL in data set [3]; < 10 µg/mL in the data set on poliovirus 3 (PV3). For the same compound, in “in vitro”, the CC50 was > 10 µg/mL. Further, the CC50 at 3 days in data set [2] is > 10 µg/mL.
On to `CC(C)c1ccc2c(c1)OC1(O)c3ccccc3C(=O)C21NC(=O)C(=O)N(C)C` (centres unmarked) [Example 21, N1-(4b-hydroxy-7-isopropyl-10-oxo-4b, 10-dihydro-9bH-indeno[1,2-b]benzofuran-9b-yl)-N2, N2-dimethyl oxal amide], for which the EC50 with HRV 21 was > 10 µg/mL; in data set [1] it was < 0.1 µg/mL; in the data set on HRV 71, > 10 µg/mL; in the data set on HRV 14, < 1 µg/mL; in data set [3], < 0.1 µg/mL; in the data set with poliovirus 3 (PV3), < 10 µg/mL. Also, the CC50 in “in vitro” is > 10 µg/mL. Also, the CC50 at 3 days in data set [2] is > 10 µg/mL.
On to `CSCCC(=O)C(=O)NC12C(=O)c3ccccc3C1(O)Oc1cc(C(C)C)ccc12` (centres unmarked) [Example 17, N-(4b-hydroxy-7-isopropyl-10-oxo-9b, 10-dihydro-4bH-indeno[1,2-b]benzofuran-9b-yl)-4-(methylthio)-2-oxo butanamide], for which the EC50 is > 10 µg/mL with HRV 21; 0.033 µg/mL (≈ 0.0776 µM) in data set [1]; > 10 µg/mL in the data set with HRV 71; 6.99 µg/mL (≈ 16.4 µM) with HRV 14; 0.067 µg/mL (≈ 0.157 µM) in data set [3]; 2.61 µg/mL (≈ 6.13 µM) in the data set on poliovirus 3 (PV3). In addition, the CC50 in “in vitro” is > 10 µg/mL. Also, in data set [2], the CC50 at 3 days was > 10 µg/mL.
For the compound `CCOC(=O)C(=O)NC12C(=O)c3cccc([N+](=O)[O-])c3C1(O)Oc1cc(C(C)C)ccc12` (centres unmarked) [Example 33, Ethyl 2-((4b-hydroxy-7-isopropyl-4-nitro-10-oxo-4b, 10-dihydro-9bH-indeno[1,2-b]benzofuran-9b-yl)amino)-2-oxo acetate], the EC50 in the data set with HRV 21 was > 10 µg/mL; in data set [1], < 10 µg/mL; in the data set on HRV 71, > 10 µg/mL; in the data set on HRV 14, > 10 µg/mL; in data set [3] it was < 10 µg/mL; with poliovirus 3 (PV3), > 10 µg/mL. For the same compound, in “in vitro”, the CC50 is > 10 µg/mL. Further, in data set [2], the CC50 at 3 days was > 10 µg/mL.
In the case of `CCCC(=O)C(=O)NC12C(=O)c3cccc([N+](=O)[O-])c3C1(O)Oc1cc(C(C)C)ccc12` (centres unmarked) [Example 34, N-(4b-hydroxy-7-isopropyl-4-nitro-10-oxo-4b, 10-dihydro-9bH-indeno[1,2-b]benzofuran-9b-yl)-2-oxo pentanamide], the EC50 in the data set on HRV 21 is > 10 µg/mL; in data set [1], < 1 µg/mL; in the data set on HRV 71 it was > 10 µg/mL; in the data set with HRV 14, < 10 µg/mL; in data set [3], < 10 µg/mL; in the data set on poliovirus 3 (PV3) it was < 10 µg/mL. For the same compound, the CC50 in “in vitro” was > 10 µg/mL. In addition, the CC50 at 3 days in data set [2] is > 10 µg/mL.
For `CCCCCCC(=O)C(=O)NC12C(=O)c3ccccc3C1(O)Oc1cc(C(C)C)ccc12` (centres unmarked) [Example 6, N-(4b-hydroxy-7-isopropyl-10-oxo-9b, 10-dihydro-4bH-indeno[1,2-b]benzofuran-9b-yl)-2-oxo octanamide], the EC50 in the data set on HRV 21 is > 8.57 µg/mL; in data set [1], 0.013 µg/mL (≈ 0.0298 µM); in the data set with HRV 71 it was > 8.57 µg/mL; in the data set on HRV 14 it was < 1 µg/mL; in data set [3], 0.015 µg/mL (≈ 0.0344 µM); in the data set with poliovirus 3 (PV3), 1.23 µg/mL (≈ 2.82 µM). Besides, the CC50 in “in vitro” was determined as 8.57 µg/mL (≈ 19.7 µM). The compound further registered a CC50 at 3 days in data set [2] of 8.57 µg/mL (≈ 19.7 µM).

As usually defined, the EC50 is the concentration giving half of the maximal effect.
